Laboratory results as given in patent US9296725B2, “Heterocyclyl pyrimidine analogues as TYK2 inhibitors” (Cellzome Limited, priority 2012, dated 2016).
Read-outs that look alike come from different tables or passages of the source.

What was measured:
TYK2 = biological target: T1, TYK2 (Homo sapiens, UniProt P29597); assay: Kinobeads assay, TYK2 (competition binding in mixed Molt4/Ramos cell lysate, dot blot detection)
T1 construct: endogenous in cells; host or cells: Molt4 (ATCC CRL-1582) and Ramos (ATCC CRL-1596), mixed lysate 1:2
T1 sequence (P29597 whole entry): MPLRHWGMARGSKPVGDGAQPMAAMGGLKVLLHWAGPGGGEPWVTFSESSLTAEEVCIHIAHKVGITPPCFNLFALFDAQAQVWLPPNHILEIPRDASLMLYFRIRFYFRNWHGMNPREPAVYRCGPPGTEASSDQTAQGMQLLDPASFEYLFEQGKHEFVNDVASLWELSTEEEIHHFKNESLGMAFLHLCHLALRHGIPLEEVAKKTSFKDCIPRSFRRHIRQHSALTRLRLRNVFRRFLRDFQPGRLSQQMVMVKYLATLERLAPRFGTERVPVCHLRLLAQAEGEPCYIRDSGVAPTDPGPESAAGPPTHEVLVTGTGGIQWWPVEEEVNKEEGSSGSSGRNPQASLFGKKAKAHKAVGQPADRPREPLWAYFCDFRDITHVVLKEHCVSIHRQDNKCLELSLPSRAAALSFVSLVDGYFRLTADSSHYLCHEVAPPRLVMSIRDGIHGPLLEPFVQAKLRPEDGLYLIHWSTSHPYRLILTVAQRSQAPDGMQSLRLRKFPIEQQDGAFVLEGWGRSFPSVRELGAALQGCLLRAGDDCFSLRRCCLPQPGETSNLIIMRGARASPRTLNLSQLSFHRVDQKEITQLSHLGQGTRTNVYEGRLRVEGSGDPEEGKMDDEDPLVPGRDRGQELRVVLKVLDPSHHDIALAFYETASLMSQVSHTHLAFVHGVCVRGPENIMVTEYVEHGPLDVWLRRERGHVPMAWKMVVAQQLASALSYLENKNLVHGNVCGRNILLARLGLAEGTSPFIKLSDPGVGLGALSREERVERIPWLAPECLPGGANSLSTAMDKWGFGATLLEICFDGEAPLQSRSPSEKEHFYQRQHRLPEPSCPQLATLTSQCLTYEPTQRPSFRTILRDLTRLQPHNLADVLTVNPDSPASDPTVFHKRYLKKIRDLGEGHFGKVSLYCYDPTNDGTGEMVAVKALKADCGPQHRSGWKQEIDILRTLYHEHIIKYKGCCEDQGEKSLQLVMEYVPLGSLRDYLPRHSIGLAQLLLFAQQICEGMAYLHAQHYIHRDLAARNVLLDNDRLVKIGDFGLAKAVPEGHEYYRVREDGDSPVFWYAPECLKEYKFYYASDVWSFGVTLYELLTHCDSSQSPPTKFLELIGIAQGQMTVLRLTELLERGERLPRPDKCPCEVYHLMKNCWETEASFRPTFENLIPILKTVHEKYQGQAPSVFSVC
Summary of the method: (§1)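 JAK2 and TYK2 retained on Kinobeads (immobilized aminopyrido-pyrimidine ligand) from 1:2 Molt4:Ramos lysate (10 mg/mL) were quantified by antibody dot blot (Odyssey infrared) after 3 h cold incubation with compound. Nine-step 1:3 dilution series; IC50 calculated from curves.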

JAK2 = biological target: T2, JAK2 (Homo sapiens, UniProt O60674); assay: Kinobeads assay, JAK2 (competition binding in mixed Molt4/Ramos cell lysate, dot blot detection); conditions: read-out: JAK2 Band (Kinobeads assay potency, IC50)
T2 construct: endogenous in cells; host or cells: Molt4 (ATCC CRL-1582) and Ramos (ATCC CRL-1596), mixed lysate 1:2
T2 sequence (O60674 whole entry): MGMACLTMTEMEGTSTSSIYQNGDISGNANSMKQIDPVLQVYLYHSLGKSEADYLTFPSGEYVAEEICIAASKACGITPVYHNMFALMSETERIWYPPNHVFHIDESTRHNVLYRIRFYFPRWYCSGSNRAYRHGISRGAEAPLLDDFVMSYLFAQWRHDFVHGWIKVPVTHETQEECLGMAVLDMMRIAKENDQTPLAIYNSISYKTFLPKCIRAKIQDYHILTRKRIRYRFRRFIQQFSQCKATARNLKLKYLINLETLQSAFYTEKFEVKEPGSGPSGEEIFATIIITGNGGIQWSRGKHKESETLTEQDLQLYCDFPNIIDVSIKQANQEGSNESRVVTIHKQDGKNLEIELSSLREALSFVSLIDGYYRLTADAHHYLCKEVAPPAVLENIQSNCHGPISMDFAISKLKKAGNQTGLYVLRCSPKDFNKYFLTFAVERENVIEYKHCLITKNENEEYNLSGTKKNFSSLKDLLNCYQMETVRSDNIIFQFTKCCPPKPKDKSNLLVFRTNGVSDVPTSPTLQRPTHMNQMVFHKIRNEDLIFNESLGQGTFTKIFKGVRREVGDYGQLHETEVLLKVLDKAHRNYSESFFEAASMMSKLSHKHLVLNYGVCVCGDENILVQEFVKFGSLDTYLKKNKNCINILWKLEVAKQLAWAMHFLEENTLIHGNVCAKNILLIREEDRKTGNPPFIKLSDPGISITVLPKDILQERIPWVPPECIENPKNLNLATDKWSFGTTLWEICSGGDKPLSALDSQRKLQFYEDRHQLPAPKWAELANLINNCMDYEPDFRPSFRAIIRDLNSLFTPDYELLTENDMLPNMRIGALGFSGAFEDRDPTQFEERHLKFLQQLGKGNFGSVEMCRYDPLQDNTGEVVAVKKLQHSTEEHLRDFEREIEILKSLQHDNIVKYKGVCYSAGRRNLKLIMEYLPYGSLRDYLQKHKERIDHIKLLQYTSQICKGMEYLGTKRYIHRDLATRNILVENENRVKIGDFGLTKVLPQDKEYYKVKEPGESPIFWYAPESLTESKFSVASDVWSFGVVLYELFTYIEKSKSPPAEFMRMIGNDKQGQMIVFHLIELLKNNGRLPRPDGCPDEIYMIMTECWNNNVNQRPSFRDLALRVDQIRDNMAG
Summary of the method: as §1

[1] = Kinobeads assay, Molt4/Ramos lysate, read-out: TYK2 Band (Kinobeads assay potency, IC50)

Structure (SMILES) | IC50 (TYK2; [1]) | IC50 (JAK2) | IC50 (TYK2; read-out: TYK2 IC50)
O=C(Cn1cc(Nc2ncc(F)c(NCc3cc(F)cc(C(F)(F)F)c3)n2)cn1)N1CCOCC1 [Example I-332] | 100 to 1000 nM | 1000 to 10000 nM | 
O=C(Cn1cc(Nc2nccc(NCc3c(F)cc(F)cc3F)n2)cn1)NC1CC1 [Example I-80] | 10 to 100 nM | 1000 to 10000 nM | 
CNC(=O)Cn1cc(Nc2ncc(Cl)c(NCc3c(F)cccc3F)n2)cn1 [Example I-229] | 10 to 100 nM | 1000 to 10000 nM | 
Cn1cc(Nc2ncc(Cl)c(NCc3cc(Br)ccc3F)n2)cn1 [Example I-218] | 100 to 1000 nM | 100 to 1000 nM | 
CN(C)C(=O)Cn1cc(Nc2ncc(Cl)c(NCc3ccccc3S(C)(=O)=O)n2)cn1 [Example I-452] | 100 to 1000 nM | 100 to 1000 nM | 
CN(C)C(=O)Cn1cc(Nc2ncc(Cl)c(NCc3ccccc3)n2)cn1 [Example I-217] | 100 to 1000 nM | 1000 to 10000 nM | 
COc1ccc(Cl)c(CNc2nc(Nc3cnn(CC(=O)N4CCOCC4)c3)ncc2F)c1F [Example I-81] | ≤ 10 nM | 100 to 1000 nM | 
COc1ccc(F)c(CNc2ccnc(Nc3cnn(CC(=O)N[C@@H]4C[C@@H]4F)c3)n2)c1F [Example I-128] | 10 to 100 nM | 1000 to 10000 nM | 
CN(C)C(=O)Cn1cc(Nc2ncc(F)c(NCc3c(F)cccc3F)n2)cn1 [Example I-382] | 10 to 100 nM | 1000 to 10000 nM | 
O=C(O)Cn1cc(Nc2ncc(Cl)c(NCc3cc(F)cc(F)c3)n2)cn1 [Example I-168] | 100 to 1000 nM | 100 to 1000 nM | 
CC(C)NC(=O)Cn1cc(Nc2nccc(NCc3cccc(OC(F)F)c3)n2)cn1 [Example I-67] | 10 to 100 nM | > 10000 nM | < 100 nM
CNC(=O)Cn1cc(Nc2ncc(Cl)c(NCc3cccc(C#N)c3)n2)cn1 [Example I-230] | 10 to 100 nM | 1000 to 10000 nM | 
Cc1cnc(Nc2cnn(CC(=O)NC3CCC3)c2)nc1NCc1c(F)cc(F)cc1F [Example I-33] | 10 to 100 nM | 1000 to 10000 nM | 
COc1ccc(F)c(CNc2ccnc(Nc3cnn(CC(=O)NCCF)c3)n2)c1F [Example I-126] | 10 to 100 nM | 1000 to 10000 nM | 
CC(O)Cn1cc(Nc2ncc(Cl)c(NCc3cccc(F)c3F)n2)cn1 (centres unmarked) [Example I-215] | 100 to 1000 nM | 100 to 1000 nM | 
CNC(=O)Cn1cc(Nc2ncc(Cl)c(NCc3ccccc3S(=O)(=O)N(C)C)n2)cn1 [Example I-356] | 100 to 1000 nM | 100 to 1000 nM | 
CN(C)S(=O)(=O)c1ccccc1CNc1nc(Nc2cnn(C)c2)ncc1Cl [Example I-474] | 100 to 1000 nM | 100 to 1000 nM | 
COc1c(F)cccc1CNc1nc(Nc2cnn(CC(N)=O)c2)ncc1Cl [Example I-404] | 100 to 1000 nM | 100 to 1000 nM | 
COc1ccc(F)c(CNc2nc(Nc3cnn(CCO)c3)ncc2C)c1F [Example I-304] | ≤ 10 nM | 10 to 100 nM | 
O=C(Cn1cc(Nc2ncc(Cl)c(NCc3ccccc3)n2)cn1)N1CCNCC1 [Example I-187] | 10 to 100 nM | 100 to 1000 nM | 

Structure (SMILES) | IC50 (TYK2; [1]) | IC50 (JAK2) | IC50 (TYK2; read-out: TYK2 IC50)
OCCn1cc(Nc2ncc(Cl)c(NCc3ccccc3C(F)(F)F)n2)cn1 [Example I-191] | 100 to 1000 nM | 1000 to 10000 nM | 
Fc1cc(F)c(CNc2ccnc(Nc3cnn(CCN4CCOCC4)c3)n2)c(F)c1 [Example I-112] | 10 to 100 nM | 1000 to 10000 nM | < 100 nM
O=C(Cn1cc(Nc2nccc(NCc3c(F)cc(F)cc3F)n2)cn1)N[C@H]1CCOC1 [Example I-138] | 10 to 100 nM | 1000 to 10000 nM | 
CC(C)NC(=O)Cn1cc(Nc2nccc(NCc3c(F)cncc3F)n2)cn1 [Example I-145] | ≤ 10 nM | > 10000 nM | 
O=C(Cn1cc(Nc2nccc(NCc3c(F)cc(F)cc3F)n2)cn1)NCC1COCCO1 (centres unmarked) [Example I-432] | 10 to 100 nM | 1000 to 10000 nM | 
CNC(=O)Cn1cc(Nc2ncc(F)c(NCc3c(Cl)cccc3Cl)n2)cn1 [Example I-329] | 10 to 100 nM | 1000 to 10000 nM | 
CNC(=O)Cn1cc(Nc2ncc(C)c(NCc3cc(F)cc(F)c3)n2)cn1 [Example I-354] | 100 to 1000 nM | 100 to 1000 nM | 
Cn1cc(Nc2nccc(NCc3c(F)cccc3F)n2)cn1 [Example I-312] | 100 to 1000 nM | > 10000 nM | 
Fc1cc(F)c(CNc2nc(Nc3cnn(CC(F)F)c3)ncc2F)c(F)c1 [Example I-464] | 100 to 1000 nM | > 10000 nM | 
NS(=O)(=O)c1ccc(CNc2nc(Nc3cnn(CCO)c3)ncc2F)cc1 [Example I-9] | 10 to 100 nM | > 10000 nM | 
CC(C(N)=O)n1cc(Nc2ncc(Cl)c(NCc3ccccc3)n2)cn1 (centres unmarked) [Example I-285] | 100 to 1000 nM | 1000 to 10000 nM | 
CNC(=O)Cn1cc(Nc2ncc(Cl)c(NCc3cc(F)cc(F)c3)n2)cn1 [Example I-190] | 100 to 1000 nM | 100 to 1000 nM | 
Cn1cc(Nc2ncc(Cl)c(NCc3c(F)cc(F)cc3F)n2)cn1 [Example I-385] | 10 to 100 nM | 1000 to 10000 nM | 
CNC(=O)Cn1cc(Nc2ncc(Cl)c(NCc3cccc(OCC#N)c3)n2)cn1 [Example I-364] | 100 to 1000 nM | 1000 to 10000 nM | 
CCOC(=O)Cn1cc(Nc2ncc(F)c(NCc3c(F)ccc(OC)c3F)n2)cn1 [Example I-53] | 10 to 100 nM | 1000 to 10000 nM | 
Cn1cc(Nc2ncc(Cl)c(NCc3cc(C(F)(F)F)ccc3Cl)n2)cn1 [Example I-278] | 100 to 1000 nM | 1000 to 10000 nM | 
CC(C)Oc1cccc(CNc2nc(Nc3cnn(CCO)c3)ncc2Cl)c1 [Example I-334] | 100 to 1000 nM | 1000 to 10000 nM | 
CS(=O)(=O)Cc1cccc(CNc2nc(Nc3cnn(CC(N)=O)c3)ncc2Cl)c1 [Example I-443] | 100 to 1000 nM | 1000 to 10000 nM | 
COc1cc(F)c(CNc2nc(Nc3cnn(CC(=O)N4CCOCC4)c3)ncc2C)c(F)c1 [Example I-29] | ≤ 10 nM | 1000 to 10000 nM | 

Further lines, results first:

IC50 (TYK2; [1]) | IC50 (JAK2) | IC50 (TYK2; read-out: TYK2 IC50) | Structure (SMILES)
≤ 10 nM | 10 to 100 nM |  | OCCn1cc(Nc2ncc(Cl)c(NCc3c(F)ccc(F)c3F)n2)cn1 [Example I-373]
10 to 100 nM | 100 to 1000 nM |  | CS(=O)(=O)c1ccc(F)cc1CNc1nc(Nc2cnn(CC(=O)NC3CC3)c2)ncc1Cl [Example I-74]
10 to 100 nM | 100 to 1000 nM |  | N#Cc1cccc(CNc2nc(Nc3cnn(CC(=O)N4CCOCC4)c3)ncc2Cl)c1 [Example I-172]
10 to 100 nM | 1000 to 10000 nM |  | CS(=O)(=O)c1ccc(F)c(CNc2nc(Nc3cn[nH]c3)ncc2F)c1 [Example I-114]
10 to 100 nM | 100 to 1000 nM |  | Cc1cnc(Nc2cnn(CC(=O)NC3CC3)c2)nc1NCc1cc(F)ccc1F [Example I-346]
≤ 10 nM | 1000 to 10000 nM |  | C[C@@H](CO)NC(=O)Cn1cc(Nc2nccc(NCc3c(F)cc(F)cc3Cl)n2)cn1 [Example I-132]
10 to 100 nM | 1000 to 10000 nM |  | N#Cc1cccc(CNc2nc(Nc3cnn(CCO)c3)ncc2F)c1 [Example I-167]
10 to 100 nM | 1000 to 10000 nM |  | O=C(Cn1cc(Nc2ncc(F)c(NCc3c(Cl)cccc3Cl)n2)cn1)N1CCOCC1 [Example I-49]
10 to 100 nM | 100 to 1000 nM |  | COc1ccc(F)c(CNc2nc(Nc3cnn(C)c3)ncc2C)c1F [Example I-302]
1000 to 10000 nM | 1000 to 10000 nM |  | Cc1cnc(Nc2cnn(CC(F)(F)F)c2)nc1NCc1cc(F)cc(F)c1F [Example I-351]
100 to 1000 nM | 100 to 1000 nM |  | Fc1cc(F)c(F)c(CNc2nc(Nc3cnn(CC(F)F)c3)ncc2Cl)c1 [Example I-468]
1000 to 10000 nM | 1000 to 10000 nM |  | CS(=O)(=O)CCn1cc(Nc2ncc(Cl)c(NCc3ccccc3)n2)cn1 [Example I-289]
10 to 100 nM | 1000 to 10000 nM |  | NC(=O)Cn1cc(Nc2ncc(Cl)c(NCc3c(F)cc(F)cc3F)n2)cn1 [Example I-387]
100 to 1000 nM | 100 to 1000 nM |  | CS(=O)(=O)c1cccc(CNc2nc(Nc3cnn(CC(N)=O)c3)ncc2Cl)c1 [Example I-439]
≤ 10 nM | 100 to 1000 nM |  | CN(C)C(=O)Cn1cc(Nc2ncc(Cl)c(NCc3c(F)ccc(F)c3F)n2)cn1 [Example I-360]
10 to 100 nM | > 10000 nM |  | N#CCNC(=O)Cn1cc(Nc2nccc(NCc3c(F)cc(F)cc3F)n2)cn1 [Example I-110]
10 to 100 nM | 1000 to 10000 nM |  | CN(C)C(=O)Cn1cc(Nc2ncc(F)c(NCc3c(Cl)cccc3Cl)n2)cn1 [Example I-251]
100 to 1000 nM | 1000 to 10000 nM |  | OCCn1cc(Nc2ncc(F)c(NCc3ccccc3)n2)cn1 [Example I-193]
10 to 100 nM | 1000 to 10000 nM |  | CNC(=O)Cn1cc(Nc2ncc(F)c(NCc3c(F)ccc(F)c3F)n2)cn1 [Example I-410]
10 to 100 nM | 1000 to 10000 nM |  | O=C(Cn1cc(Nc2ncc(F)c(NCc3c(F)cc(F)cc3F)n2)cn1)NC1CC1 [Example I-4, N-cyclopropyl-2-(4-((5-fluoro-4-((2,4,6-trifluorobenzyl)amino)pyrimidin-2-yl)amino)-1H-pyrazol-1-yl)acetamide]
10 to 100 nM | 1000 to 10000 nM |  | COc1ccc(F)c(CNc2nc(Nc3cnn(CC(N)=O)c3)ncc2F)c1F [Example I-384]
10 to 100 nM | 1000 to 10000 nM |  | COc1ccc(F)c(CNc2nc(Nc3cnn(CC(=O)O)c3)ncc2Cl)c1F [Example I-295]
10 to 100 nM | 1000 to 10000 nM |  | CC(C)(CF)NC(=O)Cn1cc(Nc2nccc(NCc3c(F)cc(F)cc3F)n2)cn1 [Example I-430]
10 to 100 nM | 100 to 1000 nM |  | Cc1cnc(Nc2cnn(C)c2)nc1NCc1c(F)cc(S(N)(=O)=O)cc1F [Example I-43]
100 to 1000 nM | 1000 to 10000 nM |  | Fc1cccc(F)c1CNc1nc(Nc2cnn(Cc3ncco3)c2)ncc1Cl [Example I-481]
10 to 100 nM | 1000 to 10000 nM |  | COc1ccc(F)c(CNc2nc(Nc3cnn(CC(=O)NC(C)C)c3)ncc2Cl)c1F [Example I-427]
100 to 1000 nM | 1000 to 10000 nM |  | CNS(=O)(=O)c1cccc(CNc2nc(Nc3cnn(C)c3)ncc2Cl)c1 [Example I-200]
